SMILES strings stand for the structures.

This data set relates to Pseudaletia separata Walker. The data set can be described thus: Effects on Pseudaletia separata Walker (corn leaf immersion, third instar larvae). In kind it is in vivo. The following applies: wettable powder diluted to 125 ppm, corn leaves immersed 30 seconds, 25° C., 65% RH, assessed 6 days after treatment. As to the method: Effects on Pseudaletia separata Walker
According to the instructions of the wettable powder described in the above Example 2, a wettable powder was diluted with water to make the compound concentration 125 ppm. Corn leaves were immersed in the solution for 30 seconds, air-dried and placed in a Petri dish containing 5 third instar larvae of Pseudaletia separata Walker. The dish was covered with a glass lid and placed in a thermostatic chamber of temperature of 25° C. and relative humidity of 65%. Mortality was assessed 6 days after treatment. Each test was replicated twice.

In turn, `Cc1cc(Cl)ccc1N=CN(C)C` [Chlordimeform] came in with a mortality of 40%.

The mortality is the share of the test organisms that died. The low end stands for a weak lethal effect, the high end for a strong lethal effect.

(Values after patent US6492404B1, “Thiazolylcinnamonitriles and pest controlling agents” (Nippon Soda Co., Ltd., priority 1998, dated 2002).)
